System: zebra fish (Danio rerio) embryos
Experiment: Movement pattern analysis of zebra fish embryos subjected to challenge (Example 5)
Type: in vivo
Conditions: 30 minutes exposure
Description: Images of the movement of each subject embryo were recorded for a period of ten minutes. The imaging apparatus comprised a 4 megapixel monochrome camera (AVT Pike 421) operating at 15 Hz with a 1600×1200 pixel region of interest, connected to a zooming optic lens system (Keyence VHZ100R).
This temporal tracking technique first extracts corner features from each image. Thereafter, image features are registered from frame to frame and assigned a velocity variance to each, A feature with a high velocity variance was rejected, as indicating inaccurate tracking. The remaining features were used in subsequent analysis of the movement pattern of the embryo.
Four parameters of motion of the subject embryo were extracted from each frame of the image data and compared with the corresponding parameters in the preceding frames. The four parameters of motion were positive and negative angles of rotation, and Rho-theta angular changes to the centre of mass for the embryo. The centre of mass of the embryo was determined by determining the X and Y coordinates of every point of motion detected. The X and Y coordinates were summed to provide mean values for X and Y.
The resulting data were analysed for spectral content using the Fast Discrete Fourier Transform (FDFT), to generate data relating to the frequency of motion of the subject embryo. […] 18 frequency bins were analysed from the FDFT analysis. […]

## CCO [ethanol]
1.5% ethanol in deionised water, stage 19 and 21.5 hpf embryos, 27° C
  movement pattern (optic flow) compared with the control embryos: more peaks in positive and negative rotational movement and X and Y displacement of the centre of mass
1.5% ethanol, stage 33 embryos
  distinction from control embryos by ANOSIM analysis of movement patterns: readily distinguished from the stage 33 control embryos
